Legend:
Experiment in all cases: relative viability (nuclei count vs DMSO), 5 days (fraction); higher = more cells survive
KIN001-266 + Navitoclax = compound: CCN1CCC(CC1)N2C=C(N=N2)CNC3=CC4=C(C(=CN=C4C(=C3)Cl)C#N)NC5=CC(=C(C=C5)F)Cl [KIN001-266] + CC1(C)CCC(c2ccc(Cl)cc2)=C(CN2CCN(c3ccc(C(=O)NS(=O)(=O)c4ccc(N[C@H](CCN5CCOCC5)CSc5ccccc5)c(S(=O)(=O)C(F)(F)F)c4)cc3)CC2)C1 [Navitoclax] (partner 0.5 µM)
In short: (§1)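 One day after seeding in 1536-well plates, lung cancer cell lines were dosed by pin tool. Dosing was either single-drug or a fixed anchor-drug dose plus five library-drug doses (not always all listed) in √10 steps. After 5 days, nuclei were stained in one fix-and-stain step and counted on 4× images, and relative viability is the nuclei count of treated wells over that of vehicle wells, given as the median of duplicate plates.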

KIN001-266 + Vorinostat = compound: CCN1CCC(CC1)N2C=C(N=N2)CNC3=CC4=C(C(=CN=C4C(=C3)Cl)C#N)NC5=CC(=C(C=C5)F)Cl [KIN001-266] + O=C(CCCCCCC(=O)Nc1ccccc1)NO [Vorinostat] (partner 1 µM)
In short: as §1

KIN001-266 + Linsitinib = compound: CCN1CCC(CC1)N2C=C(N=N2)CNC3=CC4=C(C(=CN=C4C(=C3)Cl)C#N)NC5=CC(=C(C=C5)F)Cl [KIN001-266] + C[C@]1(O)C[C@@H](c2nc(-c3ccc4ccc(-c5ccccc5)nc4c3)c3c(N)nccn32)C1 [Linsitinib] (partner 1 µM)
In short: as §1

KIN001-266 + Alpelisib = compound: CCN1CCC(CC1)N2C=C(N=N2)CNC3=CC4=C(C(=CN=C4C(=C3)Cl)C#N)NC5=CC(=C(C=C5)F)Cl [KIN001-266] + Cc1nc(NC(=O)N2CCC[C@H]2C(N)=O)sc1-c1ccnc(C(C)(C)C(F)(F)F)c1 [Alpelisib] (partner 2 µM)
In short: as §1

Cell Line	relative viability (KIN001-266 + Navitoclax; first compound 0.08 µM)	relative viability (KIN001-266 + Navitoclax; first compound 0.253 µM)	relative viability (KIN001-266 + Navitoclax; first compound 0.8 µM)	relative viability (KIN001-266 + Navitoclax; first compound 2.53 µM)	relative viability (KIN001-266 + Navitoclax; first compound 8 µM)	relative viability (KIN001-266 + Vorinostat; first compound 0.08 µM)	relative viability (KIN001-266 + Vorinostat; first compound 0.253 µM)	relative viability (KIN001-266 + Vorinostat; first compound 0.8 µM)	relative viability (KIN001-266 + Vorinostat; first compound 8 µM)	relative viability (KIN001-266 + Linsitinib; first compound 0.08 µM)	relative viability (KIN001-266 + Linsitinib; first compound 0.253 µM)	relative viability (KIN001-266 + Linsitinib; first compound 0.8 µM)	relative viability (KIN001-266 + Linsitinib; first compound 2.53 µM)	relative viability (KIN001-266 + Linsitinib; first compound 8 µM)	relative viability (KIN001-266 + Alpelisib; first compound 0.08 µM)	relative viability (KIN001-266 + Alpelisib; first compound 0.253 µM)	relative viability (KIN001-266 + Alpelisib; first compound 0.8 µM)	relative viability (KIN001-266 + Alpelisib; first compound 2.53 µM)	relative viability (KIN001-266 + Alpelisib; first compound 8 µM)	relative viability (KIN001-266 + Vorinostat; first compound 2.53 µM)
LCLC-97TM1	0.506	0.365	0.247	0.398	0.333	0.867	0.799	0.627	0.614	0.226	0.197	0.18	0.176	0.192	0.268	0.217	0.236	0.222	0.236	
HARA	1.17	1.03	1.14	1.11	1.03	0.544	0.603	0.481	0.502	0.863	0.851	0.925	0.935	0.735	0.771	0.77	0.835	0.847	0.59	0.462
HCC-78	0.812	0.807	0.758	0.88	0.775	0.582	0.36	0.419	0.453	0.465	0.516	0.451	0.459	0.642	0.302	0.346	0.377	0.46	0.411	0.493
NCI-H1666	1.06	0.983	0.852	0.91	0.847	1.04	1.06	1.01	1	1.02	0.861	0.869	0.825	0.674	0.985	0.999	0.901	0.887	0.696	1.03
NCI-H2347	0.869	0.747	0.787	0.834	0.453	0.678	0.647	0.62	0.418	0.998	0.936	0.937	0.762	0.573	1.03	1.01	1.03	0.996	0.578	0.594
NCI-H838	1.09	1.19	1.22	1.08	0.867	0.714	0.775	0.697	0.515	0.979	1.04	1.01	0.936	0.59	1.04	0.998	1.05	0.966	0.694	0.626
NCI-H2023	0.956	1	1.08	0.93	1.05	0.676	0.871	0.675	0.539	0.696	0.706	0.696	0.617	0.481	0.672	0.64	0.588	0.598	0.618	0.636
201T	1.18	1.23	1.23	1.19	1.21	1.02	0.969	0.876	0.934	1.08	1.04	0.984	1.01	1.15	1.03	1	1.02	1.05	1.01	0.988

From the supplement of paper PMC10307832
